We go through five compounds from patent publication US12665203B2, “Organo-metallic analytes for nonaqueous redox flow batteries” (The Regents of the University of California, priority 2020, dated 2026).

Read-outs that look alike come from different tables or passages of the source.

The conditions of data set [1]: symmetric NRFB, cited from earlier work.
Data set [2] is described as follows: Charging/discharging, asymmetric H-cell, anion exchange membrane separator. The protocol:
Complex 2b was also tested as an analyte in an asymmetric cell configuration because this allowed us to achieve a cell design where up to four electrons are stored during each charge and discharge cycle. Using an AEM as separator, potentials and currents were initially chosen to maximize the energy density of the cell: storing 4 electrons in the battery. Over 10 cycles and 45 h, a Coulombic efficiency of 98% was observed (FIGS. 17A-C). […] An asymmetric cell with 2b functioning as a four-electron analyte could be revisited as AEM technology is refined.
Charge-discharge studies were performed inside of a glovebox under an inert atmosphere using a CH Instruments Electrochemical Analyzer Model 1400. The custom H-cell was designed by Adams and Chittenden (FIGS. 21A-B and 22) with compartments separated by an AMI-7001S Anion exchange membrane (Membrane International Inc.) or glass frit. If a membrane was used, it was soaked in 0.5 M nBu4NBF4MeCN electrolyte solution for 48 h prior to use. […] In the asymmetric studies, the counter compartment contained only 3.5 mL 0.5 M nBu4NBF4MeCN electrolyte solution, and an isomolded graphite rod counter electrode. […]

Data set [3] is described as follows: Cyclic voltammetry: redox potentials, diffusion coefficients, electron-transfer rate constants. The class given is physicochemical. To be noted: for D0: calculated using eq 2 (Randles-Sevcik); for D0 / k0: GC electrode; for k0: calculated using eq 4 (Nicholson method). The protocol: These redox events correspond to the 2b^+/2b couple at +0.08 V, the 2b/2b^− couple at −0.20 V, the 2b^−/2b^2− couple at −0.90 V, and the 2b^2−/2b^3− couple at −1.38 V vs SCE.
The mass transport and electrokinetics of 2b were also evaluated because a RFB analyte must have fast diffusion kinetics (D) and heterogeneous electron-transfer rate (k0) to have a high rate capability. Roughly, k0 of 10^−5 cm/s is considered a minimum requirement, and this minimum requirement is met by most of the recently studied NRFB analytes. The rate is also dependent on the electrode material, and is generally orders of magnitude higher when using Hg, Pt, or Au electrodes. For this reason, kinetic parameters were probed using a glass carbon (GC) button electrode. CV's were recorded of 2b at varying scan rates, and the D values were determined by plotting the current density versus the square root of the scan rate (FIGS. 6A-C). From the slope of the linear fit of this line and the Randles-Sevcik equation (see equations below), D for each redox couple was obtained (eq. 2). Plots of the inverse of the square root of the scan rate versus the transfer parameter (ψ), extracted from the peak to peak separation (ΔEp), were also constructed, so that k0 could be calculated using the Nicholson method (TABLE 5, eq 3-4). For each redox couple D is on the order of 10^−6 cm^2/s, and k0 is on the order of 10^−3 cm/s (TABLE 5).
All potentials are referenced to the SCE couple, and ferrocene was used as an external standard where the E/of ferrocene/ferrocenium is +0.40 V vs. SCE in 0.1 M Bu4NPF6MeCN. Bu4NPF6 was recrystallized from ethanol and placed under vacuum for 72 hours before electrolyte solutions were made. Electrolyte solutions were stored over 3 Å molecular sieves for at least 48 hours before use. Sieves were activated by heating under vacuum at 270° C. for at least 72 hours. UV-Vis spectra were obtained using a 1 cm cuvette using an Agilent 8453 UV-vis spectrophotometer.
The diffusion coefficients for each redox couple were determined by first plotting CV's of 2b at varying scan rates (0.2-8 V/s) (FIG. 10). The diffusion coefficients were then determined from the slope of the peak current density (jp) versus the square root of the scan rate (υ^1/2):
[…], transfer parameter (ψ) was calculated by obtaining the peak to peak separation of each redox couple (ΔEp), at varying scan rates (0.2-8 V/s) (FIG. 10):
[formula] The electron transfer rate constant (k0) was then extracted from the slope of a plot of versus υ^1/2 (FIG. 10):
[formula] where n is the number of electrons transferred, F is the Faraday constant (96485 Cmol^−1), D is the averaged diffusion coefficient for the oxidation and reduction reaction (DO and DR) (cm^2/s), υ is the scan rate (V/s), R is the ideal gas constant (8.314 J/mol-K) and T is the temperature (K). Calculation 4.

Assay in data set [4]: as above
The class given is physicochemical.

Data set [5] is described as follows: Charging/discharging, symmetric NRFB H-cell, glass frit separator. To be noted: after three weeks of charging/discharging. On the procedure: Complex 2b was tested in both symmetric and asymmetric NRFB configurations and in both cases, an anion exchange membrane (AEM), and a glass frit as separator between the working electrode and counter electrode compartments were trialed. […] A current of 0.2 mA for the charge and 0.2 mA for the discharge were chosen as described below. Two consecutive plateaus are observed for each charging and discharging process, indicative of two electron transfer processes (FIGS. 12A-B and 13).
The first plateau at −0.97 V is determined by the oxidation of 2b^− to 2b in the cathodic compartment, and the concurrent reduction of 2b^− to 2b^2− in the anodic compartment. The second plateau at −0.21 V is determined by the oxidation of 2b to 2b^+ in the cathodic compartment, with concurrent reduction of 2b^2− to 2b^3− in the anodic compartment. Upon discharge, the reduction of 2b^+ to 2b and 2b to 2b^− in the cathodic compartment results in a small potential drop, with discharging plateaus of −0.98 and −0.24 V, respectively.
Charge-discharge studies were performed inside of a glovebox under an inert atmosphere using a CH Instruments Electrochemical Analyzer Model 1400. The custom H-cell was designed by Adams and Chittenden (FIGS. 21A-B and 22) with compartments separated by an AMI-7001S Anion exchange membrane (Membrane International Inc.) or glass frit. […]

The nature of data set [6]: Working electrode screen, extended cycling. To be noted: GC electrodes, 100 cycles. An excerpt:
Potential working electrodes for the NRFB cell tests were also screened. GC, reticulated vitreous carbon (RVC, 20, 80 and 100 PPI), graphite rods, and carbon felt which are all commonly employed as working electrodes in NRFB applications were examined.

As for `COCCOCCOCCNc1ccc(NCCOCCOCCOC)c2c1C(=O)c1ccccc1C2=O` [(Me-TEG)2DAAQ], the Cactive in data set [1] (solvent DME) is listed as 1000 mM.
For the compound `C1=Cc2nc1c(-c1ccccc1)c1ccc([nH]1)c(-c1ccccc1)c1nc(c(-c3ccccc3)c3ccc([nH]3)c2-c2ccccc2)C=C1` [H2TPP], in data set [1] (solvent CH2Cl2), the Cactive is 10 mM.
In the case of [(I2P^−)2Al][OTf] [2b], in data set [2] (asymmetric NRFB configuration, multiple cycles, separator not stated), the “degradation of the analyte” value is given as “no degradation of the analyte”. Further, in data set [2] (asymmetric cell, AEM, after 45 h), the “decomposition of the analyte” value was “Decomposition of the analyte was observed”. In data set [3] (couple 2b^0/1−), the E1/2 is listed as −1.08 V vs SCE, the D0 was 6.3 (5.5) 10^−6 cm^2/s and the k0 is listed as 13 ± 2.7 × 10^−3 cm/s. Moreover, in data set [3] (couple 2b^1+/0), the E1/2 was −0.30 V vs SCE, the D0 is listed as 5.1 (4.9) 10^−6 cm^2/s and the k0 was 8.9 ± 1.2 × 10^−3 cm/s. In data set [3] (couple 2b^1−/2−), the E1/2 is reported as −1.51 V vs SCE, the D0 is listed as 9.9 (4.6) 10^−6 cm^2/s and the k0 is 10 ± 2.1 × 10^−3 cm/s. Further, in data set [3] (couple 2b^2+/1+), the D0 is 4.7 (6.8) 10^−6 cm^2/s and the k0 was 8.1 ± 1.7 × 10^−3 cm/s. Moreover, in data set [3] (each redox couple), the “D, order of magnitude” value is on record as ~10^−6 cm^2/s and the “k0, order of magnitude” value is recorded as ~10^−3 cm/s. Besides, in data set [4] (CV, 0.5 M Bu4NBF4 MeCN), the “redox potential, 2b/2b^− couple” value was −0.20 V vs SCE; the “redox potential, 2b^2−/2b^3− couple” value is −1.38 V vs SCE; the “redox potential, 2b^+/2b couple” value was “+0.08 V vs SCE”; the “redox potential, 2b^−/2b^2− couple” value was −0.90 V vs SCE. Also, the E1/2 in data set [4] (couple 2b^2+/1+) was 0.06 V vs SCE. In addition, in data set [5], the degradation of analyte entry is recorded as “Partial degradation”. In addition, the “stability of analyte remaining in solution” value in data set [6] is recorded as “stable to extended cycling in solution”.
On to [bpy(COOMe)2]3Cr, for which the Cactive in data set [1] (solvent MeCN) is recorded as 210 mM.
Regarding phthalocyanine Mn-nitride [PcMnN], in data set [1] (solvent MeCN), the Cactive is listed as 1 mM.
